# Reference: PMC12292233, “Effects of 2-Hydroxypropyl-β-Cyclodextrin on the Antioxidant Efficiency of Some Gallic Acid Derivatives in Soybean Oil-in-Water Emulsions” (Antioxidants, 2025)
# Legend:
# [1] = design: method as in PMID 34037013, PMID 25180889, PMID 28248497; details: based on oxygen uptake; ratio oleic:linoleic:linolenic; ref [25],[26],[27]; cited from earlier work
# [2] = Distribution of antioxidants in intact soybean oil-in-water emulsions (16-ArN2+ chemical probe, pseudophase kinetic model); assay type: physicochemical; details: for PO^I, partition constant oil-interfacial / PW^I, partition constant water-interfacial / PW^I (app), partition constant water-interfacial: soybean oil-in-water emulsion, Tween 20, T = 25.0 °C; for order of percentage of AO in the interfacial region: at any particular ΦI value
# Procedure: Emulsions contain three regions (oil, interface, and aqueous) with distinct solvent properties, and antioxidants are partitioned between them to different extents depending on their hydrophobicity (Figure 4). To prevent disturbance of the existing equilibria, the partition constants were evaluated in the intact emulsions using a well-established chemical method based on the reaction between a chemical probe, 4-hexadecylbenzenediazonium (16-ArN2^+), and the antioxidants. Kinetic results are then analyzed using a pseudophase kinetic model.
# The method, along with its assumptions, advantages, and limitations, are described in detail elsewhere; only the relevant parts will be summarized here. 16-ArN2^+ is specifically designed as a water-insoluble chemical probe due to its long hydrophobic tail but with an ionic head group that makes it oil-insoluble. Thus, the reactive (-N2^+) group is located exclusively in the interfacial region. The rate of its reaction with the antioxidant depends on the effective concentration of the antioxidant in that region, which, in turn, depends on its distribution (Figure 4). The partition constants of the antioxidant between the water interfacial (PW^I) and the oil interfacial (PO^I) regions are described by Equations (10) and (11), respectively, where the magnitudes within parenthesis indicate the local concentrations given in moles per liter for a specific region.(10) PWI=(AOI)/(AOW) (11) POI=(AOI)/(AOO)
# By employing the formalism of the pseudophase kinetic model, mathematical equations describing the relationships between the measured rate constant (kobs) for the reaction involving 16-ArN2^+ and the AOs and the partition constants can be derived, as was shown in our previous published work. Equation (12) was employed for the AOs, which are distributed between the three regions. Equation (12) can be simplified to Equation (13) for those antioxidants that only partition between the oil and the interfacial regions.(12) kobs=AOTkIPWIPOI/ΦOPWI+ΦIPWIPOI+ΦWPOI (13) kobs=kIAOTPOI/ΦIPOI+ΦO
# With the partition constants known, the percentage of AOs at the interface can be determined, and the effective concentration of AOs in each region can be determined straightforwardly by employing Equations (14)–(16).(14) %AOI=100ΦIPWIPOI/ΦOPWI+ΦIPWIPOI+ΦWPOI (15) %AOI=100ΦIPOI/ΦIPOI+ΦO (16) (AOI)=%AOIAOT/ΦI
# The application of the pseudophase kinetic model described above requires the determination of the variation in the observed rate constant (kobs) for the reaction between the chemical probe (16ArN2^+) and the antioxidants with the surfactant concentration. Because emulsions are opaque, a special protocol based on a derivatization method has been used to determine the kobs values. Briefly, unreacted arenediazonium ions were rapidly quenched by employing a suitable coupling agent (N-(1-naphthyl)ethylenediammine, NED), leading to the formation of a stable azo dye (Figure 5). The absorbance of the azo dye formed is proportional to the concentration of the unreacted 16ArN2^+ present in the reaction mixture. Further information regarding the experimental procedure is provided in a previous publication.
# The kobs values were determined by fitting the absorbance–time data pairs to the pseudo-first-order kinetic equation (Equation (17), where At, A∞, and A0 stand for the absorbance values at time t, infinitive time, and zero time, respectively).(17) lnAt−A∞=lnA0−A∞−kobst
# The distribution of the antioxidants in the intact emulsions was assessed through the analysis of the variation in the observed rate constants (kobs) for the reaction between the chemical probe 16-ArN2^+ and the AOs with the emulsifier volume fraction ΦI (Figure 9). Details of this method can be found elsewhere. For all AOs, kobs values decrease asymptotically 3–6 times upon increasing ΦI from ΦI = 0.005 to ΦI = 0.039. […]
# [3] = DPPH radical scavenging activity of gallates in absence and presence of HPCD; assay type: biochemical; details: values given as 10^6 × EC50, T = 25 ± 1 °C, reaction time 3600 s, aqueous citric acid/citrate (0.04 M, pH 3)-methanol 50:50 v/v
# Procedure: The radical scavenging activity of gallates was obtained by employing the free radical 2,2-diphenyl-1-pycrilhydrazyl DPPH^• and by following the method described by García-Perez et al.. The absorbance decrease in DPPH^• (λ= 515 nm) was monitored in the absence and the presence of CD for different concentrations of AOs ([AO] = […]) in an aqueous–methanolic solution (5:5, v/v) at T = 25 °C. […] The radical scavenging activity was measured in terms of the EC50 values, defined as the gallate concentration required to decrease DPPH^• radicals by half.
# [4] = Partition constant in soybean oil-water binary mixtures; assay type: physicochemical; details: T = 25.0 °C
# Procedure: Table 2 Partition constants values in soybean oil–water binary mixtures (PW^O) and in soybean oil-in-water emulsions (PW^I and PO^I) for gallates in the absence and the presence of HP-CD; T = 25.0 °C.
# [5] = Kinetics of lipid oxidation (conjugated dienes, AOCS Ti 1a 64) in soybean oil-in-water emulsions; details: T = 60 °C; for relative efficiency order in inhibiting lipid peroxidation: 1:9 O/W emulsion, time to 0.5% increase in conjugated dienes; for relative efficiency order in inhibiting lipid peroxidation / effect of addition of HPCD on oxidative stability of the emulsion loaded with the antioxidant: ΦI = 0.008, [AO] = 0.1 mM
# Procedure: The 1:9 oil-in-water emulsions were prepared by mixing 1 mL of stripped soybean oil and 9 mL of buffered aqueous solution (citric–citrate buffer 0.04 M pH 3.0) and different amounts of the surfactant Tween 20 (ΦI = Vsurfactant/Vemulsion = 0.005 − 0.04). Emulsions prepared without antioxidants were used as controls. In the others, the antioxidants GA, PG, OG, and LG were added to the aqueous (GA, PG) or oil (OG, LG) phases. The mixtures were stirred for at least 60 s at 20000 rpm at room temperature by employing a high-speed rotor (Polytron PT 1600 E, Kinematica, Fisher Scientific S.L., Madrid, Spain). All emulsions were prepared in triplicate and reported values are average.
# The kinetics of the lipid peroxidation of soybean oil-in-water emulsions were monitored by determining the variation in the formation of conjugated dienes (CDs) with time according to the AOCS Official Method Ti 1a 64 in both the absence (control) and the presence of antioxidants (stoichiometric [AO] = 10^−4 M). Briefly, 1:9 O/W emulsions (ΦI = 0.008) were transferred to 25 mL screw-capped erlenmeyer flasks and were placed in an orbital shaker (Incubator Heidolph 1000 orbital stirrer, Heidolph Scientific Products GmbH, Schwabach, Germany) equipped with a Heidolph thermostat 1010 to the control temperature at 148 rpm and T = 60 °C (±1 °C) in the dark.
# Aliquots (25 µL) of the emulsions were removed periodically and diluted to 10 mL with 2-propanol, and the absorbance was measured at λ = 233 nm. The percentage of conjugated dienes (%CD) was determined, as described in the literature, by employing Equation (18), where Coil stands for the concentration of soybean oil in the total volume of the emulsion (density for soybean oil = 0.93 g/mL; T = 25 °C).(18) %CD=1.0769A233nm/Coil(g/L)
# The relative efficiency of the antioxidants under the different experimental conditions was quantified by measuring the time needed to increase the CD content by 0.5% (dashed line in Figure 7). We have previously shown that these values are equal to those for the induction period determined from the intersection point of the two linear segments defining the inhibited and uninhibited (propagation) steps [28].
# [6] = Water solubility (statement); assay type: physicochemical
"PO^I, partition constant oil-interfacial ([2]; [HPCD] = 0)","PO^I, partition constant oil-interfacial ([2]; [HPCD] = 0.013 M)",order of percentage of AO in the interfacial region [2],EC50 ([3]; 0 M HPCD),EC50 ([3]; 1.1·10^−2 M HPCD),Compound,relative oxidation rate [1],relative efficiency order in inhibiting lipid peroxidation [5],effect of addition of HPCD on oxidative stability of the emulsion loaded with the antioxidant ([5]; [HP-CD] = 0.013 M),also measured
–,–,–,–,–,"CCCCCCCC/C=C\CCCCCCCC(=O)O [oleic, oleic acid]",approximately 1,–,–,–
450 ± 26,371 ± 15,%BGI > %PGI > %LGI ≈ %OGI,6.09 ± 0.12 µM,5.57 ± 0.01 µM,"CCCOC(=O)c1cc(O)c(O)c(O)c1 [PG, Propyl gallate]",–,LG ≈ OG < PG < < BG,decreases the oxidative stability slightly,"PW^I, partition constant water-interfacial ([2]; [HPCD] = 0): 382 ± 18; PW^I (app), partition constant water-interfacial ([2]; [HPCD] = 0.013 M): 315 ± 14; PW^O, partition constant [4]: 0.85 ± 0.01"
238 ± 8,174 ± 9,%BGI > %PGI > %LGI ≈ %OGI,6.02 ± 0.03 µM,5.35 ± 0.04 µM,"CCCCOC(=O)c1cc(O)c(O)c(O)c1 [BG, butyl gallate]",–,LG ≈ OG < PG < < BG,decreases the oxidative stability slightly,"PW^I, partition constant water-interfacial ([2]; [HPCD] = 0): 772 ± 33; PW^I (app), partition constant water-interfacial ([2]; [HPCD] = 0.013 M): 565 ± 9; PW^O, partition constant [4]: 3.25 ± 0.03; relative efficiency order in inhibiting lipid peroxidation ([5]; listed as butyl gallate): highest antioxidant efficiency"
–,–,–,–,–,"CCCCC/C=C\C/C=C\CCCCCCCC(=O)O [linoleic, linoleic acid]",~70,–,–,–
27 ± 9,25 ± 2,%BGI > %PGI > %LGI ≈ %OGI,–,–,"CCCCCCCCCCCCOC(=O)c1cc(O)c(O)c(O)c1 [LG, lauryl gallate]",–,LG ≈ OG < PG < < BG,negligible effect,solubility in water [6]: water insoluble
26 ± 7,25 ± 5,%BGI > %PGI > %LGI ≈ %OGI,9.02 ± 1.05 µM,8.27 ± 0.2 µM,"CCCCCCCCOC(=O)c1cc(O)c(O)c(O)c1 [OG, octyl gallate]",–,LG ≈ OG < PG < < BG,negligible effect,solubility in water [6]: water insoluble
–,–,–,8.36 ± 0.28 µM,7.84 ± 0.08 µM,"O=C(O)c1cc(O)c(O)c(O)c1 [GA, gallic acid]",–,–,–,–
–,–,–,–,–,2-Hydroxypropyl-β-cyclodextrin [HPCD],–,–,–,"effect on the kinetics of oxidation in absence of antioxidants ([5]; 1:9 soybean emulsions without antioxidant, [HP-CD] = 0.013 M): no effect"
–,–,–,–,–,"CC/C=C\C/C=C\C/C=C\CCCCCCCC(=O)O [linolenic, linolenic acid]",~100,–,–,–
